Data on 33 compounds can be found in publication PMC12040169 (PLOS Biology, 2025).

The data set is described as follows: in vitro. The settings on record: human, hela cells, % viability.

For orientation: viability means a read-out of living cells in per cent, often relative to untreated cells. Turning to `CC(=O)c1ccc2c(c1)[C@@H]1C=CC[C@@H]1[C@H](C(=O)O)N2` [CBK287093], the viability at 28.5 h, 10 µM worked out at 91.6%.

`CN(C1=NS(=O)(=O)c2ccccc21)c1ccccc1C(=O)O` [CBK287094]: the viability at 28.5 h, 10 µM worked out at 90%.

Consider `Cc1cccc(N2C(=O)SC(N(CC(=O)O)c3cccc(C)c3)C2=O)c1` (stereo not drawn) [CBK287095], for which the viability at 28.5 h, 10 µM amounted to 87.6%.

Consider `O=C(O)CN(c1ccc(F)cc1)S(=O)(=O)c1ccc2c(c1)OCCO2` [CBK287096], for which the viability at 28.5 h, 10 µM was found to be 84.1%.

As to `O=C(O)Cn1nnnc1CN1CCc2ccccc2C1` [CBK287097], the viability at 28.5 h, 10 µM is 94.3%.

As for `CCC(C)(Sc1nc(C)ccc1C#N)C(=O)O` (stereo not drawn) [CBK287098], the viability at 28.5 h, 10 µM came to 88.7%.

Regarding `O=C(O)c1cc(NCc2ccccc2)ccc1N1CCOCC1` [CBK287099], the viability at 28.5 h, 10 µM is 101%.

On to `COc1cc(C(=O)O)ccc1OCC(=O)Nc1ccc(F)cc1` [CBK287101], for which the viability at 28.5 h, 10 µM stood at 95.5%.

For `CN1C(C)(C)CC(NC(=O)c2[nH]cnc2C(=O)O)CC1(C)C` [CBK287102], the viability at 28.5 h, 10 µM is 87.5%.

In the case of `O=C(O)CCC(=O)NC1CCN(Cc2ccccc2)CC1` [CBK287103], the viability at 28.5 h, 10 µM was found to be 86.5%.

With `CC(NC(=O)CCC(=O)O)C12CC3CC(CC(C3)C1)C2` (stereo not drawn) [CBK287105], the viability at 28.5 h, 10 µM came to 97.9%.

Take `COc1cccc(NC(=O)C2C(C(=O)O)C3C=CC2C32CC2)c1` (stereo not drawn) [CBK287106]: the viability at 28.5 h, 10 µM was 81.6%.

Regarding `O=C(O)Cn1cc(C(=O)c2cccs2)c2ccccc21` [CBK287110], under “bulk resorufin, single well”, the viability at 28.5 h, 10 µM worked out at 91.9%.

Regarding `CC(C)(C)OC(=O)N1CCN(CCn2cc(C(=O)O)nn2)CC1` [CBK287112], the viability at 28.5 h, 10 µM was found to be 86.8%.

For `O=C(Nc1ccccc1C(=O)O)c1ccccc1Cl` [CBK287114], the viability at 28.5 h, 10 µM amounted to 88%.

With `CC(=O)c1ccc(OCCn2c(SCC(=O)O)nc3ccccc32)cc1` [CBK287115], the viability at 28.5 h, 10 µM came out at 88.8%.

With `Cc1nn2c(c1-c1ccccc1)NC(=O)CC2C(=O)O` (stereo not drawn) [CBK287118], the viability at 28.5 h, 10 µM is 95.3%.

On to `CCOc1ccc(C(N)CC(=O)O)c2ccccc12` (stereo not drawn) [CBK287120], for which the viability at 28.5 h, 10 µM is 89.1%.

In the case of `COc1ccc(C(CC(=O)O)c2ccc3c(c2)OCCO3)cc1OC` (stereo not drawn) [CBK287121], the viability at 28.5 h, 10 µM was 87%.

On to `O=C(Nc1cccc(Cl)c1)c1cccc(NC(=O)c2ccccc2C(=O)O)c1` [CBK287122], for which the viability at 28.5 h, 10 µM is 81.8%.

As to `CC(C)(C)NC(=O)c1cccc(N2C(=O)c3ccc(C(=O)O)cc3C2=O)c1` [CBK287123], the viability at 28.5 h, 10 µM is 86.8%.

For `Cc1c(C(=O)O)ccc2c1N[C@@H](c1ccc(OCC#N)cc1)C1CC=CC21` (stereo partly drawn) [CBK287124], the viability at 28.5 h, 10 µM turned out to be 89.2%.

In the case of `Cc1ccc(S(=O)(=O)N(CC(=O)O)c2ccc(Br)cc2)cc1` [CBK287125], the viability at 28.5 h, 10 µM is 95.3%.

As to `Cc1ccc(Oc2ccc3c(c2)C(=O)N(CC(=O)O)C3=O)cc1` [CBK287126], the viability at 28.5 h, 10 µM was 91.4%.

With `CC(=O)C(CC(=O)O)C1=C(O)CC(C)(C)CC1=O` (stereo not drawn) [CBK287127], the viability at 28.5 h, 10 µM was 91.5%.

In the case of `COc1ccc(-c2nn(CC(=O)O)cc2/C=C/c2cc(C(F)(F)F)nc(=O)[nH]2)cc1` [CBK287128], the viability at 28.5 h, 10 µM was 86.8%.

For the compound `Cc1nn2c(=O)cc(C(=O)O)[nH]c2c1-c1ccccc1` [CBK287129], the viability at 28.5 h, 10 µM worked out at 88.2%.

As for `CCN1C(=O)N(CC)C2C1NC(=O)N2CCCC(=O)O` (stereo not drawn) [CBK287131], the viability at 28.5 h, 10 µM amounted to 89.3%.

As for `O=C(O)CC(Cc1ccccc1)(C(=O)O)c1ccccc1` (stereo not drawn) [CBK287133], the viability at 28.5 h, 10 µM worked out at 77.8%.

With `O=C(O)C1(c2ccc(Br)cc2)CCCC1` [CBK287134], the viability at 28.5 h, 10 µM stood at 87.3%.

As to `CCC(Sc1nc(O)cc(-c2ccccc2)n1)C(=O)O` (stereo not drawn) [CBK287135], the viability at 28.5 h, 10 µM is 87.8%.

In the case of `COc1cccc(NC(=O)c2ccc(NC(=O)CCCC(=O)O)cc2)c1` [CBK287137], the viability at 28.5 h, 10 µM turned out to be 83.7%.

Take `O=C(O)c1cccc2c1C(=O)C(CC1CCCO1)N2` (stereo not drawn) [CBK287140]: the viability at 28.5 h, 10 µM turned out to be 90.6%.
